In patent US5958950A, “Benzimidazole compounds useful for the treatment of inflammatory disease, atherosclerosis, restenosis or inhibiting lipoxygenase” (Warner-Lambert Company, priority 1998, dated 1999) one finds IC50 and inhibition data, which are given here for 32 compounds.

For the first assay, the target named is T1, rabbit reticulocyte 15-LO (Oryctolagus cuniculus, UniProt P12530).
T1 construct: rabbit reticulocyte 15-LO; from tissue; host or cells: rabbit reticulocytes
T1 sequence (P12530 1-663): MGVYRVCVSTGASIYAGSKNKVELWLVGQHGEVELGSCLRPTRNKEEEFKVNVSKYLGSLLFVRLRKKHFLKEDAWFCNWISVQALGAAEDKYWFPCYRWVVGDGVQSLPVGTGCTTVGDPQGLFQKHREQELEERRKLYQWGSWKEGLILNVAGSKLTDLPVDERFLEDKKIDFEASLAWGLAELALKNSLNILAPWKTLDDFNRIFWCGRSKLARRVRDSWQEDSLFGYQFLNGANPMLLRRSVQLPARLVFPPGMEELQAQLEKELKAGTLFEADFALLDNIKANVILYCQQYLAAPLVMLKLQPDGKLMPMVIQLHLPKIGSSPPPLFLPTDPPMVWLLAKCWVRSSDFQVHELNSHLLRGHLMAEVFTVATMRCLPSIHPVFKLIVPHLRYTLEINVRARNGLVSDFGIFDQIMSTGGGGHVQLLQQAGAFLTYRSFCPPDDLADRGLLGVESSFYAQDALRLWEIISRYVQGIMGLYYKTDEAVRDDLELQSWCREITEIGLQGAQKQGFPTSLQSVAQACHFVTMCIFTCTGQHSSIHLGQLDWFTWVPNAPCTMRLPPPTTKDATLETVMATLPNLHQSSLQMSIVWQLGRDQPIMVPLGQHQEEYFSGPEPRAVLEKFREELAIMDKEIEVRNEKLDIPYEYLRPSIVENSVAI
Kind of assay: 15-Lipoxygenase Assay: inhibition of 15-LO with linoleic acid as substrate, HPLC method of Auerbach et al. The format is biochemical. The conditions noted are these: HPLC method; incubation at 4° C. for 10 minutes; read-out: concentration of compounds required to inhibit 50% of the activity of 15-LO (IC50). The protocol: The compounds described above are effective inhibitors of 15-LO when evaluated in standard assays routinely utilized to measure 15-LO activity. Specifically, representative compounds were evaluated by the methods described by Auerbach, et al., Analytical Biochemistry, 1992; 201:375-380.Two in vitro assays were utilized, both utilizing rabbit reticulocyte 15-LO, and linoleic acid as substrate, to enzymatically produce a peroxide oxidation product known as 13(S)-HPODE. N-Benzoyl leucomethylene blue was utilized as a calorimetric reagent for detection and quantification of the peroxide formation. Also, HPLC was utilized to quantify the oxidation following incubation at 4° C. for 10 minutes.
The 15-LO inhibitory activity of representative compounds is presented in Table I. The data column gives the concentration of compounds required to inhibit 50% of the activity of 15-LO (IC50) when measured by the HPLC method of Auerbach, et al. [drawing 10] Wherein W, X, Y and Z are C--H and R1 is hydrogen.
As to `c1ccc(-c2csc(-c3nc4ccccc4[nH]3)n2)nc1` [Example 1], the IC50 worked out at 360 nM.

For `Clc1ccc(-c2csc(-c3nc4ccccc4[nH]3)n2)cc1` [Example 2], the IC50 came out at 620 nM.

For `Fc1ccc(-c2csc(-c3nc4ccccc4[nH]3)n2)cc1` [Example 3], the IC50 came to 189 nM.

Take `Clc1ccc(Cl)c(-c2csc(-c3nc4ccccc4[nH]3)n2)c1` [Example 5]: the IC50 amounted to 207 nM.

Regarding `c1ccc(-c2csc(-c3nc4ccccc4[nH]3)n2)cc1` [Example 6, 2-(4-Phenyl-thiazol-2-yl)-1H-benzoimidazole], the IC50 turned out to be 115 nM.

In the case of `c1csc(-c2csc(-c3nc4ccccc4[nH]3)n2)c1` [Example 7], the IC50 was found to be 96 nM.

Regarding `COc1cccc(-c2csc(-c3nc4ccccc4[nH]3)n2)c1` [Example 8, 2-[4-(3-Methoxy-phenyl)-thiazol-2-yl]-1H-benzoimidazole], the IC50 is 500 nM.

For the compound `COc1ccccc1-c1csc(-c2nc3ccccc3[nH]2)n1` [Example 9, 2-[4-(2-Methoxy-phenyl)-thiazol-2-yl]-1H-benzoimidazole], the IC50 was 125 nM.

For the compound `COc1ccc(-c2csc(-c3nc4ccccc4[nH]3)n2)cc1` [Example 10, 2-[4-(4-Methoxy-phenyl)-thiazol-2-yl]-1H-benzoimidazole], the IC50 stood at 1650 nM.

As for `c1ccc(-c2ccc(-c3csc(-c4nc5ccccc5[nH]4)n3)cc2)cc1` [Example 11, 2-(4-Biphenyl-4-yl-thiazol-2-yl)-1H-benzoimidazole], the IC50 is more than 10000 nM.

`Oc1ccc(-c2csc(-c3nc4ccccc4[nH]3)n2)cc1` [Example 12, 4-[2-(1H-Benzoimidazol-2-yl)-thiazol-4-yl]-phenol]: the IC50 was more than 2500 nM.

On to `Oc1ccc(-c2csc(-c3nc4ccccc4[nH]3)n2)cc1O` [Example 13, 4-[2-(1H-Benzoimidazol-2-yl)-thiazol-4-yl]-benzene-1,2-diol], for which the IC50 was more than 2500 nM.

For the compound `COc1ccc(OC)c(-c2csc(-c3nc4ccccc4[nH]3)n2)c1` [Example 15, 2-[4-(2,5-Dimethoxy-phenyl)-thiazol-2-yl]-1H-benzoimidazole], the IC50 stood at 390 nM.

For the compound `COc1cccc(OC)c1-c1csc(-c2nc3ccccc3[nH]2)n1` [Example 16, 2-[4-(2,6-Dimethoxy-phenyl)-thiazol-2-yl]-1H-benzoimidazole], the IC50 is more than 10000 nM.

As for `Cc1ccccc1-c1csc(-c2nc3ccccc3[nH]2)n1` [Example 19, 2-(4-o-Tolyl-thiazol-2-yl)-1H-benzoimidazole], the IC50 was 330 nM.

Turning to `Clc1cccc(-c2csc(-c3nc4ccccc4[nH]3)n2)c1` [Example 20, 2-[4-(3-Chloro-phenyl)-thiazol-2-yl]-1H-benzoimidazole], the IC50 amounted to 200 nM.

Regarding `Brc1ccc(-c2csc(-c3nc4ccccc4[nH]3)n2)cc1` [Example 21, 2-[4-(4-Bromo-phenyl)-thiazol-2-yl]-1H-benzoimidazole], the IC50 was found to be 460 nM.

Consider `O=C1c2ccccc2C(=O)N1Cc1csc(-c2nc3ccccc3[nH]2)n1` [Example 25, 2-[2-(1H-Benzoimidazole-2yl)-thiazol-4-ylmethyl]-isoindole-1,3-dione], for which the IC50 is more than 10000 nM.

With `Brc1sc(-c2nc3ccccc3[nH]2)nc1-c1ccccc1` [Example 27, 2-(5-Bromo-4-phenyl-thiazol-2-yl)-1H-benzoimidazole], the IC50 stood at 773 nM.

With `O=C(O)c1sc(-c2nc3ccccc3[nH]2)nc1-c1ccccc1` [Example 29, 2-(lH-Benzoimidazol-2-yl)-4-phenyl-thiazole-5-carboxylic acid], the IC50 was more than 10000 nM.

For `O=C(NCCCN1CCCCC1)c1csc(-c2nc3ccccc3[nH]2)n1` [Example 32, 2-(1H-Benzoimidazol-2-yl)-thiazole-4-carboxylic acid (3-piperidin-1-yl-propyl)-amide], the IC50 was more than 10000 nM.

As for `Oc1nc(-c2nc3ccccc3[nH]2)sc1-c1ccccc1` [Example 36, 2-(1H-Benzoimidazol-2-yl)-5-phenyl-thiazol-4-ol], the IC50 is more than 10000 nM.

Staying with this assay, now noted: marked (P), not explained; read-out: IC50 (P).
`Oc1ccccc1-c1csc(-c2nc3ccccc3[nH]2)n1` [Example 17, 2-[2-(1H-Benzoimidazol-2-yl)-thiazol-4-yl]-phenol]: the IC50 turned out to be 40 nM.

Consider `c1ccc2[nH]c(-c3nc(-c4ccncc4)cs3)nc2c1` [Example 37], for which the IC50 stood at 540 nM.

Staying with this assay, now noted: marked (Q), not explained; read-out: IC50 (Q).
As for `Oc1ccccc1-c1csc(-c2nc3ccccc3[nH]2)n1` [Example 17, 2-[2-(1H-Benzoimidazol-2-yl)-thiazol-4-yl]-phenol], the IC50 was 80 nM.

Consider `c1ccc2[nH]c(-c3nc(-c4ccncc4)cs3)nc2c1` [Example 37], for which the IC50 turned out to be 810 nM.

Still in this assay, the particulars now being: read-out: 15-LO inhibitory activity, % @ 10 μM.
With `Oc1ccc(Br)cc1-c1csc(-c2nc3ccccc3[nH]2)n1` [Example 14, 2-[2-(1H-Benzoimidazol-2-yl)-thiazol-4-yl]-4-bromo-phenol], the inhibition at 10 µM is 91.3%.

Turning to `Cc1ccc(-c2csc(-c3nc4ccccc4[nH]3)n2)cc1` [Example 18, 2-(4-p-Tolyl-thiazol-2-yl)-1H-benzoimidazole], the inhibition at 10 µM worked out at 71.6%.

Turning to `CCOC(=O)c1sc(-c2nc3ccccc3[nH]2)nc1-c1ccccc1` [Example 28, 2-(1H-Benzoimidazol-2-yl)-4-phenyl-thiazole-5-carboxylic acid ethyl ester], the inhibition at 10 µM turned out to be 69%.

Consider `CCOC(=O)c1csc(-c2nc3ccccc3[nH]2)n1` [Example 30, 2-(1H-Benzoimidazol-2-yl)-thhiazole-4-carboxylic acid ethyl ester], for which the inhibition at 10 µM came to 25%.

For the compound `O=C(O)c1csc(-c2nc3ccccc3[nH]2)n1` [Example 31, 2-(1H-Benzoimidazol-2-yl)-thiazole-4-carboxylic acid], the inhibition at 10 µM stood at 1.38%.

With `O=C(Nc1ccccc1)c1csc(-c2nc3ccccc3[nH]2)n1` [Example 33, 2-(1H-Benzoimidazol-2-yl)-thiazole-4-carboxylic acid phenylamide], the inhibition at 10 µM is 25.1%.

With `O=C(Nc1sc(-c2nc3ccccc3[nH]2)nc1-c1ccccc1)OCc1ccccc1` [Example 34, [2-(1H-Benzoimidazol-2-yl)-4-phenyl-thiazol-5-yl]-carbamic acid benzyl ester], the inhibition at 10 µM came out at 89.2%.

For `N#Cc1cccc(-c2csc(-c3nc4ccccc4[nH]3)n2)c1` [Example 35, 3-[2-(1H-Benzoimidazol-2-yl)-thiazol-4-yl]-benzonitrile], the inhibition at 10 µM is 45%.
